From ChEMBL document CHEMBL1156481, “Enzymatic therapeutic index of acyclovir. Viral versus human polymerase gamma specificity” (J Biol Chem, 2007)

Assays:
Human alphaherpesvirus 1 [1] = experiment: Ratio of polymerization constant K to Kd for exonuclase deficient HSV1 DNA polymerase UL42 D368A mutant
Human alphaherpesvirus 1 [2] = experiment: Polymerizing activity of exonuclase deficient HSV1 DNA polymerase UL42 D368A mutant assessed as rate of nucleotide incorporation by pre-steady state single turnover assay
[3] = molecular target: DNA polymerase subunit gamma-1 (Homo sapiens, UniProt P54098, E200A); experiment: Binding affinity to exonuclase deficient human recombinant DNA polymerase gamma E200A mutant
[4] = Binding affinity to exonuclase deficient HSV1 DNA polymerase UL42 D368A mutant; set-up: species or system Human alphaherpesvirus 1
[5] = system: T1, DNA polymerase subunit gamma-1 (Homo sapiens), P54098 [E200A]; experiment: Ratio of polymerization constant K to Kd for human recombinant DNA polymerase gamma E200A mutant
T1 sequence (whole entry): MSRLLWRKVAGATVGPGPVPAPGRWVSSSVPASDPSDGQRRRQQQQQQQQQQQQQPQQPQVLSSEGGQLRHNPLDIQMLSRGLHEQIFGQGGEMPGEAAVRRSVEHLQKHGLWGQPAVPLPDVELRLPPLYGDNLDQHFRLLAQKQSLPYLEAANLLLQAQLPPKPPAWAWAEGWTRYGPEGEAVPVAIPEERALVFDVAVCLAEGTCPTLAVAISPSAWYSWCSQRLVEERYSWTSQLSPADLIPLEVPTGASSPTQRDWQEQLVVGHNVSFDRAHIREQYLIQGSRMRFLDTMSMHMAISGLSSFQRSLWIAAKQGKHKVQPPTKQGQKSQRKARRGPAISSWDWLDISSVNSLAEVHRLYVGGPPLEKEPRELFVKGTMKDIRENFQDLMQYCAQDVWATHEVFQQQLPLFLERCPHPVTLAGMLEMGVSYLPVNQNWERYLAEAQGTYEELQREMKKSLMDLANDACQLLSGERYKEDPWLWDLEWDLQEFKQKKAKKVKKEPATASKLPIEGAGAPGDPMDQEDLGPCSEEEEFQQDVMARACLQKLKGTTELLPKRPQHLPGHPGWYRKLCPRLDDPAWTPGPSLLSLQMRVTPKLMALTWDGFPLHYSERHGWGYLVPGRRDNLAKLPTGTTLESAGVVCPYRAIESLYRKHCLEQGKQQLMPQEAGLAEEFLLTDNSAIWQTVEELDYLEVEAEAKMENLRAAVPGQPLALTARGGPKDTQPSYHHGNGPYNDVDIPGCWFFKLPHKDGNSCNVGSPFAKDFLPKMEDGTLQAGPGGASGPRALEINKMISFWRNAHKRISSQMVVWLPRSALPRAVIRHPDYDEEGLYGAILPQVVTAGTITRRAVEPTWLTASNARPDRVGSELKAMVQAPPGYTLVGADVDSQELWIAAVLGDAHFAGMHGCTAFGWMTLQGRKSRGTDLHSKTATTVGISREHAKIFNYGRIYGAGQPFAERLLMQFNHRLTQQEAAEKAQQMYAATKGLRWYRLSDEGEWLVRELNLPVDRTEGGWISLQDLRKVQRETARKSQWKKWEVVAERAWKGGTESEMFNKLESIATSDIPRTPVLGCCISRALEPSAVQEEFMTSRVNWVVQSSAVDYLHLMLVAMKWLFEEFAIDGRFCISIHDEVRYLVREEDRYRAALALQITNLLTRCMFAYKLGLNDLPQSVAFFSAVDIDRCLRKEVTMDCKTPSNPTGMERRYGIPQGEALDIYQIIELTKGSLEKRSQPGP

[6] = system: T1, DNA polymerase subunit gamma-1 (Homo sapiens), P54098 [E200A]; experiment: Polymerizing activity of exonuclase deficient human recombinant DNA polymerase gamma E200A mutant assessed as rate of nucleotide incorporation by pre-steady state single nucleotide incorporation assay
Human alphaherpesvirus 1 [7] = experiment: Activity of wild type HSV1 DNA polymerase UL42 assessed as amplitude of excision of compound from 3'-frayed DNA primer with 8 mispaired bases at 3' end during fast phase of excision
Human alphaherpesvirus 1 [8] = experiment: Activity of wild type HSV1 DNA polymerase UL42 assessed as rate of excision of compound from 3'-frayed DNA primer with 8 mispaired bases at 3' end during fast phase of excision
Homo sapiens [9] = organism: Homo sapiens; experiment: Activity of human wild-type DNA polymerase gamma assessed as rate of excision of compound from 3'-frayed DNA primer with 8 mispaired bases at 3' end during slow phase of excision
Homo sapiens [10] = organism: Homo sapiens; experiment: Activity of human wild type DNA polymerase gamma assessed as amplitude of excision of compound from 3'-frayed DNA primer with 8 mispaired bases at 3' end during fast phase of excision
Homo sapiens [11] = organism: Homo sapiens; experiment: Activity of human wild-type DNA polymerase gamma assessed as amplitude of excision of compound from 3'-frayed DNA primer with 8 mispaired bases at 3' end during slow phase of excision
Human alphaherpesvirus 1 [12] = experiment: Activity of wild type HSV1 DNA polymerase UL42 assessed as amplitude of excision of compound from correctly paired DNA primer during fast phase of excision
Human alphaherpesvirus 1 [13] = experiment: Activity of wild type HSV1 DNA polymerase UL42 assessed as amplitude of excision of compound from 3'-frayed DNA primer with 8 mispaired bases at 3' end during slow phase of excision
Homo sapiens [14] = organism: Homo sapiens; experiment: Activity of human wild type DNA polymerase gamma assessed as rate of excision of compound from correctly paired DNA primer during slow phase of excision
Homo sapiens [15] = organism: Homo sapiens; experiment: Activity of human wild type DNA polymerase gamma assessed as amplitude of excision of compound from correctly paired DNA primer during fast phase of excision
Homo sapiens [16] = organism: Homo sapiens; experiment: Activity of human wild type DNA polymerase gamma assessed as amplitude of excision of compound from correctly paired DNA primer during slow phase of excision
Human alphaherpesvirus 1 [17] = experiment: Activity of wild type HSV1 DNA polymerase UL42 assessed as amplitude of excision of compound from correctly paired DNA primer during slow phase of excision
Human alphaherpesvirus 1 [18] = experiment: Activity of wild type HSV1 DNA polymerase UL42 assessed as rate of excision of compound from 3'-frayed DNA primer with 8 mispaired bases at 3' end during slow phase of excision
Homo sapiens [19] = organism: Homo sapiens; experiment: Activity of human wild type DNA polymerase gamma assessed as rate of excision of compound from 3'-frayed DNA primer with 8 mispaired bases at 3' end during fast phase of excision
Homo sapiens [20] = organism: Homo sapiens; experiment: Activity of human wild type DNA polymerase gamma assessed as rate of excision of compound from correctly paired DNA primer during fast phase of excision
Human alphaherpesvirus 1 [21] = experiment: Activity of wild type HSV1 DNA polymerase UL42 assessed as rate of excision of compound from correctly paired DNA primer during slow phase of excision
Human alphaherpesvirus 1 [22] = experiment: Activity of wild type HSV1 DNA polymerase UL42 assessed as rate of excision of compound from correctly paired DNA primer during fast phase of excision
Homo sapiens [23] = organism: Homo sapiens; experiment: Activity of human wild type DNA polymerase gamma assessed as rate of excision of compound from 3'-frayed DNA primer with 8 mispaired bases at 3' end during fast phase of excision in presence of 100 uM dNTPs
Homo sapiens [24] = organism: Homo sapiens; experiment: Activity of human wild-type DNA polymerase gamma assessed as rate of excision of compound from correctly paired DNA primer during fast phase of excision in presence of 100 uM dNTPs
Human alphaherpesvirus 1 [25] = experiment: Activity of wild type HSV1 DNA […] UL42 assessed as amplitude of excision of compound from correctly paired DNA primer during fast phase of excision in presence of 100 uM dNTPs
Human alphaherpesvirus 1 [26] = experiment: Activity of wild type HSV1 DNA polymerase UL42 assessed as rate of excision of compound from 3'-frayed DNA primer with 8 mispaired bases at 3' end during fast phase of excision in presence of 100 uM dNTPs
Homo sapiens [27] = organism: Homo sapiens; experiment: Activity of human wild type DNA polymerase gamma assessed as amplitude of excision of compound from 3'-frayed DNA primer with 8 mispaired bases at 3' end during fast phase of excision in presence of 100 uM dNTPs
Human alphaherpesvirus 1 [28] = experiment: Activity of wild type HSV1 DNA polymerase UL42 assessed as amplitude of excision of compound from 3'-frayed DNA primer with 8 mispaired bases at 3' end during fast phase of excision in presence of 100 uM dNTPs
Human alphaherpesvirus 1 [29] = experiment: Activity of wild type HSV1 DNA polymerase UL42 assessed as rate of excision of compound from correctly paired DNA primer during fast phase of excision in presence of 100 uM dNTPs
Homo sapiens [30] = organism: Homo sapiens; experiment: Activity of human wild type DNA polymerase gamma assessed as amplitude of excision of compound from correctly paired DNA primer during fast phase of excision in presence of 100 uM dNTPs

Activity (Human alphaherpesvirus 1 [7]) [nM] | Activity (Human alphaherpesvirus 1 [8]) [s⁻¹] | Activity (Homo sapiens [10]) [nM] | Activity (Human alphaherpesvirus 1 [12]) [nM] | Activity (Homo sapiens [15]) [nM] | Activity (Homo sapiens [19]) | Activity (Homo sapiens [20]) | Activity (Human alphaherpesvirus 1 [22]) | SMILES | Ratio (Human alphaherpesvirus 1 [1]) [µM⁻¹ s⁻¹] | K (Human alphaherpesvirus 1 [2]) [s⁻¹] | Kd [3] [µM] | Kd [4] [µM] | Ratio [5] [µM⁻¹ s⁻¹] | K [6] [s⁻¹] | other results
– | – | – | – | – | – | – | – | Cc1cn([C@H]2C[C@H](O)[C@@H](COP(=O)(O)OP(=O)(O)OP(=O)(O)O)O2)c(=O)[nH]c1=O | 45 | 137 | – | – | – | – | –
– | – | – | – | – | – | – | – | Nc1nc2c(ncn2[C@H]2C[C@H](O)[C@@H](COP(=O)(O)OP(=O)(O)OP(=O)(O)O)O2)c(=O)[nH]1 [DEOXYGUANOSINE TRIPHOSPHATE] | 80 | 640 | 0.8 | 0.8 | 45 | 37 | –
– | – | – | – | – | – | – | – | Nc1nc2c(ncn2COCCOP(=O)(O)OP(=O)(O)OP(=O)(O)O)c(=O)[nH]1 [ACYCLOVIR TRIPHOSPHATE] | 1.7 | 10.1 | 6 | 6 | 0.17 | 1.03 | –
65 | 125 | 16 | 11 | 16 | 2.6 s⁻¹ | 0.45 s⁻¹ | 12 s⁻¹ | Nc1nc(O)c2ncn([C@H]3C[C@H](O)[C@@H](COP(=O)(O)O)O3)c2n1 | – | – | – | – | – | – | Activity (Homo sapiens [9]): 0.27 s⁻¹; Activity (Homo sapiens [11]): 27 nM; Activity (Human alphaherpesvirus 1 [13]): 24 nM; Activity (Homo sapiens [14]): 0.02 s⁻¹; Activity (Homo sapiens [16]): 74 nM; Activity (Human alphaherpesvirus 1 [17]): 77 nM; Activity (Human alphaherpesvirus 1 [18]): 1.3 s⁻¹; Activity (Human alphaherpesvirus 1 [21]): 0.25 s⁻¹
90 | > 0.3 | 94 | 86 | 97 | 1.3 ×10⁻³ /s | 2.1 ×10⁻³ /s | 5.1 ×10⁻⁴ /s | Nc1nc(=O)c2ncn(COCCOP(=O)(O)O)c2[nH]1 | – | – | – | – | – | – | Activity (Homo sapiens [23]): 3 ×10⁻⁴ /s; Activity (Homo sapiens [24]): 9.2 ×10⁻⁵ /s; Activity (Human alphaherpesvirus 1 [25]): 85 nM; Activity (Human alphaherpesvirus 1 [26]): > 0.3 s⁻¹; Activity (Homo sapiens [27]): 90 nM; Activity (Human alphaherpesvirus 1 [28]): 90 nM; Activity (Human alphaherpesvirus 1 [29]): 2 ×10⁻⁴ /s; Activity (Homo sapiens [30]): 91 nM
